In one experiment the target is T1, human TREX1 (Homo sapiens, UniProt Q9NSU2).
T1 construct: N-terminally His-Tev tagged full length human TREX1; made in house; host or cells: E. coli
T1 sequence (Q9NSU2 1-314): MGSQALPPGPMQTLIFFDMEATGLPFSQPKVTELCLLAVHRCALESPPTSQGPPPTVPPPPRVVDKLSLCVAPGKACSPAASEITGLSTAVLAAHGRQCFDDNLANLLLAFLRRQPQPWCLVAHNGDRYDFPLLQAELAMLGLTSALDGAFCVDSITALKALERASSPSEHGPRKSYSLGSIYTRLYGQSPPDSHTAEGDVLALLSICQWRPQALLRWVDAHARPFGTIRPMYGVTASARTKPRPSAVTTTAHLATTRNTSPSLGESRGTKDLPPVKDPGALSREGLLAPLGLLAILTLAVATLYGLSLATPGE
Put plainly: hTREX1 Biochemical Assay (fluorescence, dsDNA substrate degradation). The note with it: full length human TREX1, 4 h pre-incubation, 18 h reaction at 25° C. The procedure: (§1) Degradation of the dsDNA liberates free fluorophore to produce a fluorescent signal. Specifically, 7.5 μL of N-terminally His-Tev tagged full length human TREX1 (expressed in E. coli and purified in house) in reaction buffer (50 mM Tris, 150 mM NaCl, 2 mM DTT, 0.1 mg/mL BSA, 0.01% (w/v) Tween-20, 5 mM MgCl2, pH 7.4) was added to a 384-well Black ProxiPlate Plus (PerkinElmer) which already contained compound (150 nL) at varying concentrations as a 10 point dose-response in DMSO. The plate was incubated at 25° C. for 4 hours. Reactions were initiated by adding 7.5 μL of dsDNA substrate (Strand A: 5′ TEX615/GCT AGG CAG 3′; Strand B: 5′ CTG CCT AGC/IAbRQSp (Integrated DNA Technologies)) in reaction buffer. Final concentrations were 4 pM TREX1, 60 nM dsDNA substrate in reaction buffer with 1.0% DMSO (v/v). After 18 hours at 25° C., reactions were quenched by the addition of 2 p L of 500 mM EDTA. Final concentrations in the quenched reaction were 3.5 pM TREX1, 53 nM DNA and 59 mM EDTA in a volume of 17 μL. After a 5-minute incubation at room temperature, plates were read in an EnVision plate reader (PerkinElmer) measuring fluorescence at 615 nm following excitation w/ 570 nm light. IC50 values were calculated by comparing the measured fluorescence at 615 nm relative to control wells pre-quenched w/ EDTA (100% inhibition) and no inhibitor (0% inhibition) controls as using non-linear least square four parameter fits and either Genedata or GraphPad Prism (GraphPad Software, Inc.).

In the next experiment the target is T2, mouse TREX1 (Mus musculus, UniProt Q91XB0).
T2 construct: N-terminally His-Tev tagged full length mouse TREX1; made in house; host or cells: E. coli
T2 sequence (Q91XB0 1-314): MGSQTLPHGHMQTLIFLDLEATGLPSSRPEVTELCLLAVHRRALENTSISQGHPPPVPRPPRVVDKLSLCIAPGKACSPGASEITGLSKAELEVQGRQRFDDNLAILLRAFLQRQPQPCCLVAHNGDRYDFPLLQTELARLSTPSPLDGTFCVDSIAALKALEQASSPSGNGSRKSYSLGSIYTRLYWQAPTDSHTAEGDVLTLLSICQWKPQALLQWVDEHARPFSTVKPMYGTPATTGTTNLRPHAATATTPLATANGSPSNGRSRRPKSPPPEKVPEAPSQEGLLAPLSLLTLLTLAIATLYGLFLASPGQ
Put plainly: mTREX1 Biochemical Assay (fluorescence, dsDNA substrate degradation). The settings on record: full length mouse TREX1, 4 h pre-incubation, 18 h reaction at 25° C. The procedure:
as §1, with “Specifically, 7.5 p L of N-terminally” for “Specifically, 7.5 μL of N-terminally”, “full length mouse TREX1 (expressed” for “full length human TREX1 (expressed”, “concentrations were 6 pM TREX1,” for “concentrations were 4 pM TREX1,”, “reaction were 5.3 pM TREX1,” for “reaction were 3.5 pM TREX1,”, “of 17 p L. After a” for “of 17 μL. After a”

Each structure is given as a SMILES string.

`CC(c1nc(C(=O)Nc2cnoc2)c(O)c(=O)[nH]1)C(c1ccccc1C#N)c1ccccc1C#N` (single isomer, unassigned) [Example 5 Isomer 2, 2-(1,1-bis(2-cyanophenyl)propan-2-yl)-5-hydroxy-N-(isoxazol-4-yl)-6-oxo-1,6-dihydropyrimidine-4-carboxamide]: the IC50 (commonly the point on the concentration scale where inhibition reaches its midpoint) against human TREX1 is 1 to 10 nM; on mouse TREX1, above 10 nM.
For `CC(c1nc(C(=O)Nc2cnoc2)c(O)c(=O)n1C)C(c1ccccc1)c1cc(F)ccc1C#N` (single isomer, unassigned) [Example 6 Isomer 2] the same measures were above 100 nM and above 10 nM.
On the same counts, the results for `CC(c1nc(C(=O)Nc2cnoc2)c(O)c(=O)n1C)C(c1ccccc1)c1ccc(F)cc1C#N` (single isomer, unassigned) [Example 7 Isomer 3] are above 100 nM and above 10 nM.
On to `CC(c1nc(C(=O)Nc2cnoc2)c(O)c(=O)n1C)C(c1ccccc1)c1cc(Cl)ccc1C#N` (single isomer, unassigned) [Example 8 Isomer 1], for which the IC50 is above 100 nM on human TREX1 and above 10 nM against mouse TREX1.
On the same counts, the results for `CC(c1nc(C(=O)Nc2cnoc2)c(O)c(=O)n1C)C(c1ccccc1)c1ccc(Cl)cc1C#N` (single isomer, unassigned) [Example 9 Isomer 3] are above 100 nM and above 10 nM.
On the same counts, the results for `CC(c1nc(C(=O)Nc2cnoc2)c(O)c(=O)n1C)C(c1cc(F)cc(F)c1)c1ccccc1C#N` (single isomer, unassigned) [Example 11 Isomer 1] are above 100 nM and above 10 nM.
For the molecule `CC(c1nc(C(=O)Nc2cnoc2)c(O)c(=O)n1C)C(c1ccc(F)c(F)c1)c1ccccc1C#N` (single isomer, unassigned) [Example 12 Isomer 2], the IC50 on human TREX1 was above 100 nM; against mouse TREX1, above 10 nM.
For `CC(c1nc(C(=O)Nc2cnoc2)c(O)c(=O)n1C)C(c1ccc(F)cc1F)c1ccccc1C#N` (single isomer, unassigned) [Example 13 Isomer 4] the same measures were above 100 nM and above 10 nM.
With `C[C@H](c1nc(C(=O)Nc2cnoc2)c(O)c(=O)n1C)[C@H](c1ccccc1)c1ccccc1C(F)(F)F` (single isomer, unassigned) [Example 14 Isomer 3, 5-Hydroxy-N-(isoxazol-4-yl)-1-methyl-6-oxo-2-(1-phenyl-1-(2-(trifluoromethyl)phenyl)propan-2-yl)-1,6-dihydropyrimidine-4-carboxamide], the IC50 was above 100 nM against human TREX1 and above 10 nM at mouse TREX1.
For `C[C@H](c1nc(C(=O)Nc2cnoc2)c(O)c(=O)n1C)[C@H](c1ccccc1)c1ccc(C(=O)N(C)C)cc1C#N` (single isomer, unassigned) [Example 16 Isomer 1, 2-(1-(2-cyano-4-(dimethylcarbamoyl)phenyl)-1-phenylpropan-2-yl)-5-hydroxy-N-(isoxazol-4-yl)-1-methyl-6-oxo-1,6-dihydropyrimidine-4-carboxamide], the IC50 against human TREX1 was 1 to 10 nM; at mouse TREX1, above 10 nM.
As to `C[C@H](c1nc(C(=O)Nc2cnoc2)c(O)c(=O)n1C)[C@H](c1ccccc1)c1ccc(C(=O)N(C)C)cc1C#N` (single isomer, unassigned) [Example 16 Isomer 2, 2-(1-(2-cyano-4-(dimethylcarbamoyl)phenyl)-1-phenylpropan-2-yl)-5-hydroxy-N-(isoxazol-4-yl)-1-methyl-6-oxo-1,6-dihydropyrimidine-4-carboxamide], the results for the half-maximal inhibitory concentration (IC50) against human TREX1 and at mouse TREX1 were above 100 nM and above 10 nM, respectively.
On the same counts, the results for `CC(c1nc(C(=O)Nc2cnoc2)c(O)c(=O)n1C)C(c1ccccc1)c1cc(C(=O)N(C)C)ccc1C#N` (single isomer, unassigned) [Example 17 Isomer 2] are above 100 nM and above 10 nM.
On to `CC(c1nc(C(=O)Nc2cnoc2)c(O)c(=O)n1C)C(c1ccccc1)c1cc(C(=O)N(C)C)ccc1C#N` (single isomer, unassigned) [Example 17 Isomer 4], for which the IC50 was 10 to 100 nM at human TREX1 and above 10 nM against mouse TREX1.
On the same counts, the results for `Cn1c([C@@H](CF)C(c2ccccc2)c2ccccc2)nc(C(=O)Nc2cnoc2)c(O)c1=O` (single isomer, unassigned) [Example 18 Isomer 2, 2-(3-fluoro-1,1-diphenylpropan-2-yl)-5-hydroxy-N-(isoxazol-4-yl)-1-methyl-6-oxo-1,6-dihydropyrimidine-4-carboxamide] are above 100 nM and above 10 nM.

Source of the values: US20240262814A1, “MODULATORS OF TREX1” (Constellation Pharmaceuticals, Inc., priority 2021, published 2024).
